# In ChEMBL document CHEMBL1156962, “Evaluation of retro-inverso modifications of HTLV-1 protease inhibitors containing a hydroxyethylamine isoster” (Bioorg Med Chem, 2010):
# Test: Inhibition of HTLV1 protease assessed as decrease in substrate concentration by HPLC analysis
# Design: species or system Human T-cell leukemia virus type I
row,Compound,IC50 [µM]
1,CC[C@@H](C)[C@@H](NC(=O)[C@H](CC(C)C)[C@H](O)C[C@H]1CCCN1C(=O)NCc1ccccc1)C(=O)N[C@@H](C(=O)N1CCC[C@@H]1C(=O)N1CCC[C@@H]1C(N)=O)C(C)C,350
2,CC[C@@H](C)[C@@H](NC(=O)[C@@H](CC(C)C)[C@@H](O)C[C@H]1CCCN1C(=O)NCc1ccccc1)C(=O)N[C@@H](C(=O)N1CCC[C@@H]1C(=O)N1CCC[C@@H]1C(N)=O)C(C)C,550
3,CC[C@@H](C)[C@@H](NC(=O)[C@H](CC(C)C)[C@@H](O)C[C@H]1CCCN1C(=O)NCc1ccccc1)C(=O)N[C@@H](C(=O)N1CCC[C@@H]1C(=O)N1CCC[C@@H]1C(N)=O)C(C)C,1500
4,CC[C@H](C)[C@@H](NC[C@H](O)[C@@H](CC(C)C)NC(=O)[C@H]1CCCN1C(C)=O)C(=O)N[C@@H](C(=O)N1CCC[C@@H]1C(N)=O)C(C)C,> 10000
5,CC[C@@H](C)[C@@H](NC(=O)[C@@H](CC(C)C)[C@H](O)C[C@H]1CCCN1C(=O)NCc1ccccc1)C(=O)N[C@@H](C(=O)N1CCC[C@@H]1C(=O)N1CCC[C@@H]1C(N)=O)C(C)C,160
6,CC[C@H](C)[C@@H](NC[C@H](O)[C@@H](CC(C)C)NC(C)=O)C(=O)N[C@@H](C(=O)N1CCC[C@@H]1C(N)=O)C(C)C,> 10000
